Reference: ChEMBL document CHEMBL1154328, “New inhibitors of the complement system inspired in K76-COOH. A SAR study of filifolinol derivatives through modifications of the C3' position” (Bioorg Med Chem Lett, 2009)

experiment: Inhibition of serum complement system-mediated hemolysis of human RBCs; conditions: not given; call rule not given here

SMILES | IC50
C[C@H]1CCCC(C)(C)[C@@]12Cc1cc(C(=O)O)ccc1O2 | Not Active

same assay, conditions: read-out: IC50

SMILES | IC50 [mM]
COc1ccc(C(=O)O)c2c1C[C@@](C)([C@@H]1CC[C@](C)(O)[C@H](O)C1)O2 | 1.6
CCCN[C@@H]1CC[C@H](C)[C@]2(Cc3cc(C(=O)O)ccc3O2)C1(C)C | 0.211
C=CCO[C@@H]1CC[C@H](C)[C@]2(Cc3cc(C(=O)O)ccc3O2)C1(C)C | 3.07
COc1ccc(C(=O)O)c2c1C[C@@](C)([C@H]1CC=C(C)CC1)O2 | 0.68
C[C@H]1CC[C@@H](O)C(C)(C)[C@@]12Cc1cc(C(=O)O)ccc1O2 | 0.517
CCCO[C@@H]1CC[C@H](C)[C@]2(Cc3cc(C(=O)O)ccc3O2)C1(C)C | 0.548
C[C@H]1CC[C@@H](OCCO)C(C)(C)[C@@]12Cc1cc(C(=O)O)ccc1O2 | 4.4
C[C@H]1CC[C@@H](OCC(O)CO)C(C)(C)[C@@]12Cc1cc(C(=O)O)ccc1O2 (stereo partly specified) | 4.72
C[C@@H]1CCC2C(C)(C)[C@H](O)[C@H](O)C[C@]2(C)[C@@]12Cc1c(O)cc(C(=O)O)c(C=O)c1O2 (stereo partly specified) | 0.57
C[C@H]1CC[C@@](O)(CC(O)CO)C(C)(C)[C@@]12Cc1cc(C(=O)O)ccc1O2 (stereo partly specified) [listing 1 of 2 here] | 0.48
COC(=O)c1ccc2c(c1)C[C@@]1(O2)[C@@H](C)CC[C@@H](O)C1(C)C [FILIFOLINOL] | 2
CC1=CC[C@H]([C@]2(C)Cc3c(O)ccc(C(=O)O)c3O2)CC1 | 2.15
C[C@H]1CC[C@H](O)C(C)(C)[C@@]12Cc1cc(C(=O)O)ccc1O2 | 12.1
CCCN[C@H]1CC[C@H](C)[C@]2(Cc3cc(C(=O)O)ccc3O2)C1(C)C | 2.75
C[C@H]1CC[C@@](O)(CC(O)CO)C(C)(C)[C@@]12Cc1cc(C(=O)O)ccc1O2 (stereo partly specified) [listing 2 of 2 here] | 3.29
